These results are taken from patent publication US7601708B2, “Bile-acid derived compounds for providing sustained systemic concentrations of drugs after oral administration” (XenoPort, Inc., priority 2000, dated 2009).

Structures are written as SMILES.

In data set [1] the target is T1, LBAT (Homo sapiens, UniProt Q14973).
T1 sequence (Q14973 1-349): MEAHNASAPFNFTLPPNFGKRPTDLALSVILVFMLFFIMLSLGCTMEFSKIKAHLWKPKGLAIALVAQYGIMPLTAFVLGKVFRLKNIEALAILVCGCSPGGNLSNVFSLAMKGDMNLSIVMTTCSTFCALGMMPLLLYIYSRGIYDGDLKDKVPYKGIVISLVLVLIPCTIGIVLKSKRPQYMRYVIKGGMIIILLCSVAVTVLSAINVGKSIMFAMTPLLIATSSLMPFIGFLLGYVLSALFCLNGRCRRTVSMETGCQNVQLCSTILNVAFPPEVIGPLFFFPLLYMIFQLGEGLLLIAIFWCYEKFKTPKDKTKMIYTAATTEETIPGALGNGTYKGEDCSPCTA
Briefly: Electrogenic transport in Xenopus oocytes expressing LBAT. It counts as cell-based. The conditions noted are these: maximal induced current relative to glycodeoxycholate (100 μM). The method, then:
(b) Analysis of Electrogenic Transport in Xenopus Oocytes RNA Preparation: Human IBAT and LBAT Transporter cDNAs were subcloned into a modified pGEM plasmid that contains [NT] untranslated sequences from the Xenopus β-actin gene. These sequences increase RNA stability and protein expression. […] Xenopus oocyte isolation. Xenopus laevis frogs were anesthetized by immersion in Tricaine ([…] in deionized water) for 15 min. […] The oocytes were washed 6 times, and the buffer changed to frog ringer solution containing CaCl2 (1.8 mM). Remaining follicle cells were removed if necessary. Cells were incubated at 16° C., and each oocyte injected with […] solution. Electrophysiology measurements. […] Bath flow was controlled by an automated perfusion system (ALA Scientific Instruments, solenoid valves). For transporter pharmacology, oocytes were clamped at -60 to -90 mV, and continuous current measurements acquired using PowerLab Software and an ADInstruments digitizer. Current signals were lowpass filtered at 20 Hz and acquired at 4-8 Hz. All bath and drug-containing solutions were frog ringers solution containing CaCl2. […] The difference current (baseline subtracted from peak current during drug application) reflected the net movement of charge resulting from electrogenic transport and was directly proportional to tranport rate.

A short description of data set [2]: Secretion in bile after oral administration to bile duct-cannulated rats. It counts as in vivo, Sprague-Dawley rats. The settings on record: single oral dose of (8) 85.25 mg/kg. The method, then: Sustained release of gabapentin from a prodrug that is subject to enterohepatic recirculation requires that a proportion of the intact prodrug be absorbed after oral administration and subsequently secreted into the bile intact. The potential for enterohepatic recirculation of intact (8) was examined in rats with indwelling bile duct fistulae. […] Bile was collected continuously in aliquots over 24 hours. Plasma and bile samples were frozen at −80° C. until analyzed. […] Concentrations of intact (8) in bile were similarly determined by LC/MS/MS. Bile (20 μL) was diluted 1:1000 with methanol and injected directly onto the HPLC system. Concentrations of (8) in bile reached a maximum at ˜6 hours post-dosing and were sustained up to 24 hours.

For data set [3] the following is noted: male, Sprague-Dawley, rat, in vivo, po, 85.25 mg/kg.
The next data set addresses T2, IBAT (Homo sapiens, UniProt Q12908).
T2 construct: expressed in transfected cells; host or cells: CHO
As to the kind of experiment: In vitro uptake by CHO cells transfected with IBAT evaluated by LC-MS/MS. It counts as cell-based. The conditions noted are these: 0.06 to 1000 μM, 10 min; uptake by untransfected CHO K1 cells subtracted. The method, then: (§1) Active transport of (8) by the bile acid transport system was evaluated in vitro by incubation of (8) or glycocholate (control substrate) with untransfected CHO K1 cells or CHO cells transfected with either IBAT or LBAT. Cells (10^5 cells/mL) were incubated in 96 well plates with varying concentrations (0.06 to 1000 μM) of (8) or glycocholate for 10 min. Cells were then washed with Hank's Balanced Salt Solution (HBSS) and lysed and extracted by addition of 100 μL of water followed by sonication. Concentrations of (8) or glycocholate in cell extracts were determined by direct injection onto an API 2000 LC/MS/MS equipped with an Agilent 1100 binary pump and autosampler. Separation was achieved using a Keystone BDS Hypersil 2×50 mm column heated to 45° C. during the analysis. The mobile phases were: 0.1% formic acid in water (A) and 0.1% formic acid in acetonitrile (B). The gradient condition was: 5% B for 1 min, increasing to 90% B in 0.2 min, maintained for 2.8 min and returning to 5% B for 2 min. A TurboIonSpray source was used on the API 2000. The analysis was performed in the positive ion mode and MRM transitions of 466/412 and 562/154 were used in the analysis of glycocholate and (8), respectively. Ten microliters of the cell extracts were injected. Peaks were integrated using Analyst quantitation software. […]

A further data set concerns the target T3, Carboxypeptidase A (Bos taurus, UniProt P00730).
T3 sequence (P00730 111-419): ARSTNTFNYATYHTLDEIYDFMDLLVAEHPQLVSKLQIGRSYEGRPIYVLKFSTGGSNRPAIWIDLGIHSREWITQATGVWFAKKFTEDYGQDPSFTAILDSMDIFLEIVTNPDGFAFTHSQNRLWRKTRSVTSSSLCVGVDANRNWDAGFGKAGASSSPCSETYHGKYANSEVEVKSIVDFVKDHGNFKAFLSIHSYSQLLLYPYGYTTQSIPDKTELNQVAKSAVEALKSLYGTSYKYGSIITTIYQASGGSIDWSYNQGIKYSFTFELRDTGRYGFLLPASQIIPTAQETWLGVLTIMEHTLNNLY
Briefly: Stability towards purified carboxypeptidase A. It counts as in vitro ADME. The conditions noted are these: Carboxypeptidase A (10 units/mL); substrate 2.0 μM; no cofactors; 37° C.

Data set [4] addresses T4, LBAT (Homo sapiens, UniProt Q14973).
T4 construct: expressed in transfected cells; host or cells: CHO
Briefly: In vitro uptake by CHO cells transfected with LBAT evaluated by LC-MS/MS. The settings on record: 0.06 to 1000 μM, 10 min; uptake by untransfected CHO K1 cells subtracted. It counts as cell-based. The method, then:
as §1

A short description of data set [5]: Pharmacokinetics after oral administration to rats. The conditions noted are these: single oral dose of gabapentin 25 mg/kg.

T2 sequence (Q12908 whole entry): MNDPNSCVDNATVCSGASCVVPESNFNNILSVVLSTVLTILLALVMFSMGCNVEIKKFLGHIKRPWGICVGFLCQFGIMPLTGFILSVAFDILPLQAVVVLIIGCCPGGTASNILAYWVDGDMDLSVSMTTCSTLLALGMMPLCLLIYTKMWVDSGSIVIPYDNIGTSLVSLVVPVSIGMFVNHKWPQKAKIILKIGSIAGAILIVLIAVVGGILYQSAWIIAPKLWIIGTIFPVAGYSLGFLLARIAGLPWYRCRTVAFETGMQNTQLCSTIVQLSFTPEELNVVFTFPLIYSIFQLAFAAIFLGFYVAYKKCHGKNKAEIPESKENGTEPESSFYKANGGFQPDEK

On to `CC(CCC(=O)NCC(=O)NCC1(CC(=O)O)CCCCC1)C1CCC2C3C(O)CC4CC(O)CCC4(C)C3CC(O)C12C` (stereo not shown) [(13), Cholyl-Gly-Gabapentin], for which the “% Max. (GDC)” value on LBAT [1] was 38%.

`CC(CCC(=O)NCC1(CC(=O)O)CCCCC1)C1CCC2C3C(O)CC4CC(O)CCC4(C)C3CC(O)C12C` (stereo not shown) [Compound (8)]: in data set [2], the “time of maximum concentration of (8) in bile” value was roughly 6 h and the “time to which concentrations of (8) in bile were sustained” value stood at 24 h. Moreover, the “gabapentin in plasma of bile duct-cannulated rats” value in data set [2] (analyte gabapentin) is listed as “no gabapentin was detected”. Besides, in data set [3], the “time of maximum concentration of intact (8) in plasma” value was roughly 8 h and the “time to which concentrations of intact (8) in plasma were sustained” value was 24 h. On IBAT, the “Active uptake into IBAT transfected cells” value is recorded as “Active uptake”. Also, the “Percent of Gabapentin Released in 60 min” value at Carboxypeptidase A is listed as “Stable”. Moreover, on LBAT [4], the “Active uptake into LBAT transfected cells” value was “Active uptake”.

With `NCC1(CC(=O)O)CCCCC1` [gabapentin, 1-aminomethyl-1-cyclohexaneacetic acid], in data set [5], the “terminal half-life of gabapentin in plasma” value was determined as 2.4 ± 0.5 h.
